Tests used:
Format in all cases: functional
Podosphaera fuliginea [1] = assay: Fungicidal activity against Podosphaera fuliginea assessed as cucumber powdery mildew control under greenhouse at 7.8 ppm foliar application 24 hr after inoculation on upper surface of leaf at 23 +/- 2 degC by curative manner
[2] = tested on: Pseudoperonospora cubensis; assay: Fungicidal activity against Pseudoperonospora cubensis assessed as cucumber downy mildew disease control at 125 ppm foliar application 24 hr before inoculation on upper surface of leaf by preventive manner
Thanatephorus cucumeris [3] = assay: Fungicidal activity against Thanatephorus cucumeris assessed as rice sheath blight disease control at 31.3 ppm foliar application for 24 hr before inoculation at 26 +- 2 measured after 5 days by preventive manner
Podosphaera fuliginea [4] = assay: Fungicidal activity against Podosphaera fuliginea assessed as cucumber powdery mildew control under greenhouse at 2 ppm foliar application 24 hr before inoculation on upper surface of leaf at 23 +/- 2 degC by preventive manner
Botrytis cinerea [5] = assay: Fungicidal activity against Botryotinia fuckeliana assessed as cucumber gray mold disease control at 7.8 ppm foliar application 24 hr after inoculation at 22 +/- 2 degC measured after 3 days by curative manner
Pyricularia oryzae [6] = assay: Fungicidal activity against Magnaporthe oryzae assessed as rice blast disease control at 2.5 ppm submerged application measured after 7 days
Podosphaera fuliginea [7] = assay: Fungicidal activity against Podosphaera fuliginea assessed as cucumber powdery mildew control under greenhouse at 31.3 ppm foliar application 24 hr after inoculation on upper surface of leaf at 23 +/- 2 degC by curative manner
[8] = tested on: Pseudoperonospora cubensis; assay: Fungicidal activity against Pseudoperonospora cubensis assessed as cucumber downy mildew disease control at 7.8 ppm foliar application 24 hr before inoculation on upper surface of leaf by preventive manner
Pyricularia oryzae [9] = assay: Fungicidal activity against Magnaporthe oryzae assessed as rice blast disease control at 0.16 ppm submerged application measured after 7 days
Podosphaera fuliginea [10] = assay: Fungicidal activity against Podosphaera fuliginea assessed as cucumber powdery mildew control under greenhouse at 7.8 ppm foliar application 24 hr before inoculation on upper surface of leaf at 23 +/- 2 degC by preventive manner
Podosphaera fuliginea [11] = assay: Fungicidal activity against Podosphaera fuliginea assessed as cucumber powdery mildew control under greenhouse at 31.3 ppm foliar application 24 hr before inoculation on upper surface of leaf at 23 +/- 2 degC by preventive manner
[12] = tested on: Pseudoperonospora cubensis; assay: Fungicidal activity against Pseudoperonospora cubensis assessed as cucumber downy mildew disease control at 2 ppm foliar application 24 hr before inoculation on upper surface of leaf by preventive manner
Pyricularia oryzae [13] = assay: Fungicidal activity against Magnaporthe oryzae assessed as rice blast disease control at 0.63 ppm submerged application measured after 7 days
Thanatephorus cucumeris [14] = assay: Fungicidal activity against Thanatephorus cucumeris assessed as rice sheath blight disease control at 125 ppm foliar application for 24 hr before inoculation at 26 +- 2 measured after 5 days by preventive manner
Thanatephorus cucumeris [15] = assay: Fungicidal activity against Thanatephorus cucumeris assessed as rice sheath blight disease control at 2 ppm foliar application for 24 hr before inoculation at 26 +- 2 measured after 5 days by preventive manner
Podosphaera fuliginea [16] = assay: Fungicidal activity against Podosphaera fuliginea assessed as cucumber powdery mildew control under greenhouse at 2 ppm foliar application 24 hr after inoculation on upper surface of leaf at 23 +/- 2 degC by curative manner
Pyricularia oryzae [17] = assay: Fungicidal activity against Magnaporthe oryzae assessed as rice blast disease control at 10 ppm submerged application measured after 7 days
Podosphaera fuliginea [18] = assay: Fungicidal activity against Podosphaera fuliginea assessed as cucumber powdery mildew control under greenhouse at 125 ppm foliar application 24 hr before inoculation on upper surface of leaf at 23 +/- 2 degC by preventive manner
Botrytis cinerea [19] = assay: Fungicidal activity against Botryotinia fuckeliana assessed as cucumber gray mold disease control at 125 ppm foliar application 24 hr after inoculation at 22 +/- 2 degC measured after 3 days by curative manner
Botrytis cinerea [20] = assay: Fungicidal activity against Botryotinia fuckeliana assessed as cucumber gray mold disease control at 31.3 ppm foliar application 24 hr after inoculation at 22 +/- 2 degC measured after 3 days by curative manner
Botrytis cinerea [21] = assay: Fungicidal activity against Botryotinia fuckeliana assessed as cucumber gray mold disease control at 2 ppm foliar application 24 hr after inoculation at 22 +/- 2 degC measured after 3 days by curative manner
Thanatephorus cucumeris [22] = assay: Fungicidal activity against Thanatephorus cucumeris assessed as rice sheath blight disease control at 7.8 ppm foliar application for 24 hr before inoculation at 26 +- 2 measured after 5 days by preventive manner
Podosphaera fuliginea [23] = assay: Fungicidal activity against Podosphaera fuliginea assessed as cucumber powdery mildew control under greenhouse at 125 ppm foliar application 24 hr after inoculation on upper surface of leaf at 23 +/- 2 degC by curative manner
[24] = tested on: Pseudoperonospora cubensis; assay: Fungicidal activity against Pseudoperonospora cubensis assessed as cucumber downy mildew disease control at 31.3 ppm foliar application 24 hr before inoculation on upper surface of leaf by preventive manner

SMILES | Activity (Podosphaera fuliginea [1]) [%] | Activity [2] [%] | Activity (Thanatephorus cucumeris [3]) [%] | Activity (Podosphaera fuliginea [4]) [%] | Activity (Pyricularia oryzae [6]) [%] | Activity (Podosphaera fuliginea [7]) [%] | Activity [8] [%] | Activity (Pyricularia oryzae [9]) [%] | Activity (Podosphaera fuliginea [10]) [%] | Activity (Podosphaera fuliginea [11]) [%] | Activity [12] [%] | Activity (Pyricularia oryzae [13]) [%] | Activity (Thanatephorus cucumeris [14]) [%] | Activity (Thanatephorus cucumeris [15]) [%] | Activity (Podosphaera fuliginea [16]) [%] | Activity (Pyricularia oryzae [17]) [%] | Activity (Podosphaera fuliginea [18]) [%] | Activity (Thanatephorus cucumeris [22]) [%] | Activity (Podosphaera fuliginea [23]) [%] | Activity [24] [%] | further results
CNC(=O)/C(=N/OC)c1ccccc1Oc1cccc(OCc2ccccc2)c1 | 50 | 70 | 70 | 70 | <50 | 50 | 70 | <50 | 70 | 70 | 70 | <50 | 70 | 70 | 50 | <50 | 70 | 70 | 50 | 70 | Activity (Botrytis cinerea [5]): 50%; Activity (Botrytis cinerea [19]): 50%; Activity (Botrytis cinerea [20]): 50%; Activity (Botrytis cinerea [21]): 50%
CNC(=O)/C(=N/OC)c1ccccc1Oc1ccc(C(C)C)cc1 | 50 | 70 | 70 | 70 | 50 | 50 | 70 | 50 | 70 | 70 | 70 | 50 | 70 | 70 | 50 | 50 | 70 | 70 | 50 | 70 | Activity (Botrytis cinerea [5]): 50%; Activity (Botrytis cinerea [19]): 50%; Activity (Botrytis cinerea [20]): 50%; Activity (Botrytis cinerea [21]): 50%
CNC(=O)/C(=N/OC)c1ccccc1Oc1cccc(O)c1 | – | <70 | 70 | <70 | 50 | – | <70 | 50 | <70 | <70 | <70 | 50 | 70 | 70 | – | 50 | <70 | 70 | – | <70 | –
CNC(=O)/C(=N/OC)c1ccccc1Oc1ccc([Si](C)(C)C)cc1 | 50 | <70 | <70 | 70 | <50 | 50 | <70 | <50 | 70 | 70 | <70 | <50 | <70 | <70 | 50 | <50 | 70 | <70 | 50 | <70 | Activity (Botrytis cinerea [5]): <50%; Activity (Botrytis cinerea [19]): <50%; Activity (Botrytis cinerea [20]): <50%; Activity (Botrytis cinerea [21]): <50%
CNC(=O)/C(=N/OC)c1ccccc1Oc1ccc(Oc2ccccc2)cc1 | 50 | <70 | 70 | 70 | 50 | 50 | <70 | 50 | 70 | 70 | <70 | 50 | 70 | 70 | 50 | 50 | 70 | 70 | 50 | <70 | –
CNC(=O)/C(=N/OC)c1ccccc1Oc1cccc(OCC#N)c1 | 50 | <70 | <70 | 70 | <50 | 50 | <70 | <50 | 70 | 70 | <70 | <50 | <70 | <70 | 50 | <50 | 70 | <70 | 50 | <70 | –
CNC(=O)/C(=N/OC)c1ccccc1Oc1ccc(C(C)C)cc1C(C)C | 50 | <70 | 70 | 70 | 50 | 50 | <70 | 50 | 70 | 70 | <70 | 50 | 70 | 70 | 50 | 50 | 70 | 70 | 50 | <70 | –
CNC(=O)/C(=N/OC)c1c(OC)cccc1Oc1ccccc1 | – | <70 | <70 | <70 | – | – | <70 | – | <70 | <70 | <70 | – | <70 | <70 | – | – | <70 | <70 | – | <70 | –
CNC(=O)/C(=N/OC)c1ccccc1C(=O)c1ccccc1 | – | <70 | <70 | <70 | – | – | <70 | – | <70 | <70 | <70 | – | <70 | <70 | – | – | <70 | <70 | – | <70 | –
CNC(=O)/C(=N/OC)c1ccc(Oc2ccccc2)cc1 | – | <70 | <70 | 70 | – | – | <70 | – | 70 | 70 | <70 | – | <70 | <70 | – | – | 70 | <70 | – | <70 | –
CNC(=O)/C(=N/OC)c1ccccc1SCc1ccccc1 | – | 70 | 70 | 70 | – | – | 70 | – | 70 | 70 | 70 | – | 70 | 70 | – | – | 70 | 70 | – | 70 | –
CCO/N=C(/C(=O)NC)c1ccccc1Oc1ccccc1 | – | <70 | <70 | 70 | – | – | <70 | – | 70 | 70 | <70 | – | <70 | <70 | – | – | 70 | <70 | – | <70 | –
CNC(=O)/C(=N/OC)c1ccccc1Sc1ccccc1 | – | 70 | 70 | 70 | – | – | 70 | – | 70 | 70 | 70 | – | 70 | 70 | – | – | 70 | 70 | – | 70 | –

— ChEMBL document CHEMBL3045600, “Synthesis and Fungicidal Activities of Phenoxyphenyl Alkoxyiminoacetamide Derivatives” (J Pestic Sci, 1998)
